CC1=NN(c2ccccc2)C(=O)C1
solubility (mole fraction)
Settings	273.15 K	278.15 K	283.15 K	288.15 K	293.15 K	298.15 K	303.15 K	308.15 K	313.15 K
in acetonitrile	0.00554	0.00717	0.0092	0.0116	0.0144	0.018	0.0218	0.0265	0.0314
in ethanol	0.0172	0.0197	0.0226	0.0253	0.0285	0.0321	0.0358	0.0397	0.0445
in ethyl acetate	0.0152	0.0173	0.0196	0.0223	0.0253	0.0284	0.0323	0.0368	0.0419
in methanol	0.0108	0.013	0.0153	0.0179	0.0208	0.0238	0.0274	0.0312	0.0354
in n-propanol	0.0199	0.0222	0.0249	0.028	0.0317	0.0353	0.0393	0.0433	0.0472
